Here are results for nine molecules from US12478617B2, “Lipidated peptide inhibitors of interleukin-23 receptor” (JANSSEN BIOTECH, INC., priority 2021, dated 2025).

The structures appear in SMILES notation. Starred links: 1 amine or outer side, 2 acyl side, 3 side chain; linkers in the order of their positions; H or OH if unused. Positions of bridges follow the written chain, without caps; N, C: chain ends. Non-standard residues stand in square brackets, D forms with d. Residues, ends and D or L forms follow the SMILES beside them. Groups on a side chain read outwards from the residue. *: point of attachment. Trp(7-Me) = Cc1cccc2c(C[C@H](N)C(=O)O)c[nH]c12; C18 diacid = O=C(O)CCCCCCCCCCCCCCCCC(=O)*; C16 diacid = O=C(O)CCCCCCCCCCCCCCC(=O)*; γGlu = O=C(O)[C@H](CCC(=O)[*:2])N[*:1]; 2Nal = N[C@@H](Cc1ccc2ccccc2c1)C(=O)O; AEF = NCCOc1ccc(C[C@H](N)C(=O)O)cc1; PEG6 = NCCOCCOCCOCCOCCOCCOCCC(=O)O; Stearoyl = CCCCCCCCCCCCCCCCCC(=O)*; 3Pal = N[C@@H](Cc1cccnc1)C(=O)O; Pen = CC(C)(S)[C@H](N)C(=O)O; Thp = NC1(C(=O)O)CCOCC1; AEEA = NCCOCCOCC(=O)O; Sar = CNCC(=O)O

For this experiment, the target named is T1, IL-23R (Homo sapiens, UniProt Q5VWK5).
T1 construct: HEK293 cells containing IL-23R, IL-12RP31 and a firefly luciferase reporter gene driven by a STAT-inducible promoter (Promega); host or cells: HEK293
T1 sequence (Q5VWK5 24-629): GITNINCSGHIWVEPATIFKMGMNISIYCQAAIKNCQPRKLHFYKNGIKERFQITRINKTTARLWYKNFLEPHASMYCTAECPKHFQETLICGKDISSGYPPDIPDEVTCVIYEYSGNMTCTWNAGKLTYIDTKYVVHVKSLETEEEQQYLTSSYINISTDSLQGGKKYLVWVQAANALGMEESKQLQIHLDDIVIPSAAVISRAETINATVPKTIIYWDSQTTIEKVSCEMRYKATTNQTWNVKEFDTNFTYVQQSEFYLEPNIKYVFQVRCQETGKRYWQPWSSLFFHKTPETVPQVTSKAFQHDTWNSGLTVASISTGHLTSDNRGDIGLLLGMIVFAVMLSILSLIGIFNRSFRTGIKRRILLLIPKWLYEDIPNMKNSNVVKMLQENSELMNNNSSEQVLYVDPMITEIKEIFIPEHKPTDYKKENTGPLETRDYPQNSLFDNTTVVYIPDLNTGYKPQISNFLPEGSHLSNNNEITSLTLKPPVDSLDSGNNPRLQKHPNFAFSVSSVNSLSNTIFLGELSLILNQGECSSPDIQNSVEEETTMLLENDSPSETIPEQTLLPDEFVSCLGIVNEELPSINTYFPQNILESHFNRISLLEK
Kind of experiment: IL23R Reporter Assay. It counts as cell-based. From the text:
IL-23 binding to IL-23 receptors results in the activation of the Signal Transducer and Activator of Transcription 3 (STAT3) by phosphorylation and downstream signaling events. Accordingly. the ability of the inhibitors described herein to block IL-23 action can be assessed by monitoring the status of STAT3 activation in response to IL-23. This may be accomplished in reporter cell assays or in intact cells such as peripheral blood mononuclear cells (PBMCs).
Compounds were serially diluted in 100% (v/v) DMSO) and plated using an Echo acoustic dispenser (Labcyte) into 1536-well non-treated black assay plates (Corning #9146). […] After 5 h at 37° C., 5% CO2, 95% relative humidity, cells were placed at 20° C. and treated with BioGlo reagent (Promega) according to the Manufacturer's instructions. Luminescence was measured on a Pherastar FSX (BMG LabTech).
A general note: Reporter assays use an easily measured gene product as a stand-in for the process of interest.
One may read the IC50 as the concentration needed to halve the response being measured. In turn, `CCCCCCCCCCCCCCCCCC(=O)N[C@@H](CCC(=O)NCCCC[C@H](NC(=O)C1(NC(=O)[C@H](Cc2ccc3ccccc3c2)NC(=O)[C@H](Cc2ccc(OCCN)cc2)NC(=O)[C@H]2NC(=O)[C@H](CCCCNC(C)=O)NC(=O)[C@H](Cc3c[nH]c4c(C)cccc34)NC(=O)[C@H]([C@@H](C)O)NC(=O)[C@H](CC(N)=O)NC(=O)[C@@H](NC(C)=O)C(C)(C)SSC2(C)C)CCOCC1)C(=O)N[C@@H](CC(N)=O)C(=O)N[C@@H](Cc1cccnc1)C(=O)N(C)CC(N)=O)C(=O)O` [Example 31, MeCO-Pen*-N-T-7MeW-K(Ac)-Pen*-AEF-2Nal-THP-K(gEC18)-N-3Pya-Sar-CONH2] (Ac-[Pen]NT[Trp(7-Me)]K(Ac)[Pen][AEF][2Nal][Thp]K([γGlu-Stearoyl])N[3Pal][Sar]-NH2; disulfide 1-6) showed an IC50 of 0.052 nM. This counts as picomolar. The same measure for `CC(=O)NCCCC[C@@H]1NC(=O)[C@H](Cc2c[nH]c3c(C)cccc23)NC(=O)[C@H]([C@@H](C)O)NC(=O)[C@H](CC(N)=O)NC(=O)[C@@H](NC(C)=O)C(C)(C)SSC(C)(C)[C@@H](C(=O)N[C@@H](Cc2ccc(OCCN)cc2)C(=O)N[C@@H](Cc2ccc3ccccc3c2)C(=O)NC2(C(=O)N[C@@H](CCCCNC(=O)COCCOCCNC(=O)CC[C@H](NC(=O)CCCCCCCCCCCCCCC(=O)O)C(=O)O)C(=O)N[C@@H](CC(N)=O)C(=O)N[C@@H](Cc3cccnc3)C(=O)N(C)CC(N)=O)CCOCC2)NC1=O` [Example 34, MeCO-Pen*-N-T-7MeW-K(Ac)-Pen*-AEF-2Nal-THP-K(PEG2gEC16OH)-N-3Pya-Sar-CONH2] (Ac-[Pen]NT[Trp(7-Me)]K(Ac)[Pen][AEF][2Nal][Thp]K([AEEA-γGlu-C16 diacid])N[3Pal][Sar]-NH2; disulfide 1-6): 0.065 nM. In the case of `CC(=O)NCCCC[C@@H]1NC(=O)[C@H](Cc2c[nH]c3c(C)cccc23)NC(=O)[C@H]([C@@H](C)O)NC(=O)[C@H](CC(N)=O)NC(=O)[C@@H](NC(C)=O)C(C)(C)SSC(C)(C)[C@@H](C(=O)N[C@@H](Cc2ccc(OCCN)cc2)C(=O)N[C@@H](Cc2ccc3ccccc3c2)C(=O)NC2(C(=O)N[C@@H](CCCCNC(=O)COCCOCCNC(=O)CC[C@H](NC(=O)CCCCCCCCCCCCCCCCC(=O)O)C(=O)O)C(=O)N[C@@H](CC(N)=O)C(=O)N[C@@H](Cc3cccnc3)C(=O)N(C)CC(N)=O)CCOCC2)NC1=O` [Example 35, MeCO-Pen*-N-T-7MeW-K(Ac)-Pen*-AEF-2Nal-THP-K(PEG2gEC18OH)-N-3Pya-Sar-CONH2] (Ac-[Pen]NT[Trp(7-Me)]K(Ac)[Pen][AEF][2Nal][Thp]K([AEEA-γGlu-C18 diacid])N[3Pal][Sar]-NH2; disulfide 1-6) it was 0.19 nM; in that of `CC(=O)NCCCC[C@@H]1NC(=O)[C@H](Cc2c[nH]c3c(C)cccc23)NC(=O)[C@H]([C@@H](C)O)NC(=O)[C@H](CC(N)=O)NC(=O)[C@@H](NC(C)=O)C(C)(C)SSC(C)(C)[C@@H](C(=O)N[C@@H](Cc2ccc(OCCN)cc2)C(=O)N[C@@H](Cc2ccc3ccccc3c2)C(=O)NC2(C(=O)N[C@@H](CCCCNC(=O)COCCOCCNC(=O)COCCOCCNC(=O)CC[C@H](NC(=O)CCCCCCCCCCCCCCCCCCC(=O)O)C(=O)O)C(=O)N[C@@H](CC(N)=O)C(=O)N[C@@H](Cc3cccnc3)C(=O)N(C)CC(N)=O)CCOCC2)NC1=O` [Example 36, MeCO-Pen*-N-T-7MeW-K(Ac)-Pen*-AEF-2Nal-THP-K(PEG2PEG2gEC20OH)-N-3Pya-Sar-CONH2], 0.14 nM; in that of `CC(=O)NCCCC[C@@H]1NC(=O)[C@H](Cc2c[nH]c3c(C)cccc23)NC(=O)[C@H]([C@@H](C)O)NC(=O)[C@H](CC(N)=O)NC(=O)[C@@H](NC(=O)[C@@H](CCCNC(=N)N)NC(=O)COCCOCCNC(=O)COCCOCCNC(=O)CC[C@H](NC(=O)CCCCCCCCCCCCCCC(=O)O)C(=O)O)C(C)(C)SSC(C)(C)[C@@H](C(=O)N[C@@H](Cc2ccc(OCCN)cc2)C(=O)N[C@@H](Cc2ccc3ccccc3c2)C(=O)NC2(C(=O)N[C@@H](CCCCNC(=O)COCCOCCNC(=O)COCCOCCNC(=O)CC[C@H](NC(=O)CCCCCCCCCCCCCCC(=O)O)C(=O)O)C(=O)N[C@@H](CC(N)=O)C(=O)N[C@@H](Cc3cccnc3)C(=O)N(C)CC(N)=O)CCOCC2)NC1=O` [Example 37, HOC16gEPEG2PEG2-r-Pen*-N-T-7MeW-K(Ac)-Pen*-AEF-2Nal-THP-K(PEG2PEG2gEC16OH)-N-3Pya-Sar-CONH2] ({C16 diacid-γGlu-AEEA-AEEA}-[dR][Pen]NT[Trp(7-Me)]K(Ac)[Pen][AEF][2Nal][Thp]K([AEEA-AEEA-γGlu-C16 diacid])N[3Pal][Sar]-NH2; disulfide 2-7), 0.19 nM. In turn, `CC(=O)NCCCC[C@@H]1NC(=O)[C@H](Cc2c[nH]c3c(C)cccc23)NC(=O)[C@H]([C@@H](C)O)NC(=O)[C@H](CC(N)=O)NC(=O)[C@@H](NC(C)=O)C(C)(C)SSC(C)(C)[C@@H](C(=O)N[C@@H](Cc2ccc(OCCN)cc2)C(=O)N[C@@H](Cc2ccc3ccccc3c2)C(=O)NC2(C(=O)N[C@@H](CCCCNC(=O)COCCOCCNC(=O)CCOCCOCCOCCOCCOCCOCCNC(=O)CC[C@H](NC(=O)CCCCCCCCCCCCCCCCC(=O)O)C(=O)O)C(=O)N[C@@H](CC(N)=O)C(=O)N[C@@H](Cc3cccnc3)C(=O)N(C)CC(N)=O)CCOCC2)NC1=O` [Example 39, MeCO-Pen*-N-T-7MeW-K(Ac)-Pen*-AEF-2Nal-THP-K(PEG2PEG6gEC18OH)-N-3Pya-Sar-CONH2] (Ac-[Pen]NT[Trp(7-Me)]K(Ac)[Pen][AEF][2Nal][Thp]K([AEEA-PEG6-γGlu-C18 diacid])N[3Pal][Sar]-NH2; disulfide 1-6) gave an IC50 of 0.048 nM. Against the preceding molecule, the IC50 is about 4-fold lower. In the case of `CC(=O)NCCCC[C@@H]1NC(=O)[C@H](Cc2c[nH]c3c(C)cccc23)NC(=O)[C@H]([C@@H](C)O)NC(=O)[C@H](CC(N)=O)NC(=O)[C@@H](NC(C)=O)C(C)(C)SSC(C)(C)[C@@H](C(=O)N[C@@H](Cc2ccc(OCCN)cc2)C(=O)N[C@@H](Cc2ccc3ccccc3c2)C(=O)NC2(C(=O)N[C@@H](CCCCNC(=O)COCCOCCNC(=O)COCCOCCNC(=O)CCCCCCCCCCCCCCCCC(=O)O)C(=O)N[C@@H](CC(N)=O)C(=O)N[C@@H](Cc3cccnc3)C(=O)N(C)CC(N)=O)CCOCC2)NC1=O` [Example 41, MeCO-Pen*-N-T-7MeW-K(Ac)-Pen*-AEF-2Nal-THP-K(PEG2PEG2C18OH)-N-3Pya-Sar-CONH2] (Ac-[Pen]NT[Trp(7-Me)]K(Ac)[Pen][AEF][2Nal][Thp]K([AEEA-AEEA-C18 diacid])N[3Pal][Sar]-NH2; disulfide 1-6) it was 0.078 nM; in that of `CC(=O)NCCCC[C@@H]1NC(=O)[C@H](Cc2c[nH]c3c(C)cccc23)NC(=O)[C@H]([C@@H](C)O)NC(=O)[C@H](CC(N)=O)NC(=O)[C@@H](NC(C)=O)C(C)(C)SSC(C)(C)[C@@H](C(=O)N[C@@H](Cc2ccc(OCCN)cc2)C(=O)N[C@@H](Cc2ccc3ccccc3c2)C(=O)NC2(C(=O)N[C@@H](CCCCNC(=O)CCOCCOCCOCCOCCOCCOCCNC(=O)CCOCCOCCOCCOCCOCCOCCNC(=O)CC[C@H](NC(=O)CCCCCCCCCCCCCCC(=O)O)C(=O)O)C(=O)N[C@@H](CC(N)=O)C(=O)N[C@@H](Cc3cccnc3)C(=O)N(C)CC(N)=O)CCOCC2)NC1=O` [Example 42, MeCO-Pen*-N-T-7MeW-K(Ac)-Pen*-AEF-2Nal-THP-K(PEG6PEG6gEC16OH)-N-3Pya-Sar-CONH2] (Ac-[Pen]NT[Trp(7-Me)]K(Ac)[Pen][AEF][2Nal][Thp]K([PEG6-PEG6-γGlu-C16 diacid])N[3Pal][Sar]-NH2; disulfide 1-6), 0.029 nM. `CC(=O)NCCCC[C@@H]1NC(=O)[C@H](Cc2c[nH]c3c(C)cccc23)NC(=O)[C@H]([C@@H](C)O)NC(=O)[C@H](CC(N)=O)NC(=O)[C@@H](NC(C)=O)C(C)(C)SSC(C)(C)[C@@H](C(=O)N[C@@H](Cc2ccc(OCCN)cc2)C(=O)N[C@@H](Cc2ccc3ccccc3c2)C(=O)NC2(C(=O)N[C@@H](CCCCNC(=O)CCOCCOCCOCCOCCOCCOCCNC(=O)CCOCCOCCOCCOCCOCCOCCNC(=O)CC[C@H](NC(=O)CCCCCCCCCCCCCCCCC(=O)O)C(=O)O)C(=O)N[C@@H](CC(N)=O)C(=O)N[C@@H](Cc3cccnc3)C(=O)N(C)CC(N)=O)CCOCC2)NC1=O` [Example 43, MeCO-Pen*-N-T-7MeW-K(Ac)-Pen*-AEF-2Nal-THP-K(PEG6PEG6gEC18OH)-N-3Pya-Sar-CONH2] (Ac-[Pen]NT[Trp(7-Me)]K(Ac)[Pen][AEF][2Nal][Thp]K([PEG6-PEG6-γGlu-C18 diacid])N[3Pal][Sar]-NH2; disulfide 1-6) yielded an IC50 of 0.049 nM.
